Measurements from patent US12116343B2, “Inhibitors of APOL1 and methods of using same” (Vertex Pharmaceuticals Incorporated, priority 2020, dated 2024).
pIC50: −log10 of the molar value.

These molecules were tested against T1, G1 APOL1 (Homo sapiens, UniProt O14791, I384M/S342G) (assay: Acute APOL1 Thallium Assay with inducible stable clones of HEK 293 cells). Conditions: HEK 293 T-Rex cells expressing G1 APOL1; read-out: Thallium Assay (IC50).
T1 construct: expressed in transfected cells
T1 sequence (O14791 28-398 S342G/I384M): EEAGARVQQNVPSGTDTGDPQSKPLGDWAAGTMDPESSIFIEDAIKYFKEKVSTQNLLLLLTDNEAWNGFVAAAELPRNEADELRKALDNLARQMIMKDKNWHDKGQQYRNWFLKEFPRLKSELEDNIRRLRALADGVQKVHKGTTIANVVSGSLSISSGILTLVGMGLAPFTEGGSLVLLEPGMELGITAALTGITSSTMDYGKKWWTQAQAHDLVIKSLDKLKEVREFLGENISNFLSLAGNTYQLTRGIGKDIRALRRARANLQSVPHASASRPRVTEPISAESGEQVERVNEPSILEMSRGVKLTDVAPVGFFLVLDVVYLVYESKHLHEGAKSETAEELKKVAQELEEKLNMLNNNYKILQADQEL
Format: cell-based
Method in brief: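 Tetracycline-inducible HEK293 T-Rex clone G1 DC3.25 expressing G1 APOL1, plated at 26000 cells/well in Opti-MEM with tetracycline induction. APOL1 pore activity read on FLIPR as fluorescence increase from Tl+ influx into cells loaded with a Tl+-sensitive AM-ester dye.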

pIC50 | SMILES
6.00 to 6.60 | Cn1cnc(CNC(=O)C2(C)CC(c3c(-c4ccc(F)cc4)[nH]c4c(F)cc(F)cc34)C2)c1 (mixture of isomers) [Compound 282]
< 6.00 | O=C(NCC1CC(F)(F)C1)[C@H]1C[C@@H](c2c(-c3ccc(F)cc3)[nH]c3c(F)cc(F)cc32)C1 [Compound 266]
6.00 to 6.60 | O=C(NCCO)C1CC(c2c(-c3ccc(F)cc3)[nH]c3c(F)cc(C(F)(F)F)cc23)C1 (centres unmarked) [Compound 279]
< 6.00 | O=C1CCC(NC(=O)[C@H]2C[C@@H](c3c(-c4ccc(F)cc4)[nH]c4c(F)cc(F)cc43)C2)C(=O)N1 (some centres unmarked) [Compound 252]
> 6.60 | O=C(N[C@@H](CO)C(F)F)[C@H]1C[C@H](c2c(-c3ccc(F)cc3)[nH]c3c(F)cc(F)cc32)C1 [Compound 230]
< 6.00 | C[C@H](CO)NC(=O)CNC(=O)[C@H]1C[C@H](c2c(-c3ccc(F)cc3)[nH]c3c(F)cc(F)cc32)C1 [Compound 232]
< 6.00 | COCCNC(=O)[C@H]1C[C@@H](c2c(-c3ccc(F)cc3)[nH]c3c(F)cc(F)cc32)C1 [Compound 242]

Same assay, conditions: Table 24, Compounds 287 to 465; read-out: Thallium Assay (IC50)

SMILES | pIC50
NC(=O)CNC1CC(c2c(-c3ccc(F)cc3)[nH]c3c(F)cc(F)cc23)C1 (centres unmarked) [Compound 288, 2-[[3-[5,7-difluoro-2-(4-fluorophenyl)-1H-indol-3-yl]cyclobutyl]amino]acetamide] | < 6.00
CC1(O)CC(NC(=O)C2CC(Cc3c(-c4ccc(F)cc4)[nH]c4c(F)cc(F)cc34)C2)C1 (centres unmarked) [Compound 325] | < 6.00
CC(C)(O)CNC(=O)C1CC(Cc2c(-c3ccc(F)cc3)[nH]c3c(F)cc(F)cc23)C1 (centres unmarked) [Compound 318] | < 6.00
CON(C)C(=O)CN[C@H]1C[C@H](c2c(-c3ccc(F)cc3)[nH]c3c(F)cc(F)cc32)C1 [Compound 292] | < 6.00
C[C@H](NC(=O)C1CC(Cc2c(-c3ccc(F)cc3)[nH]c3c(F)cc(F)cc23)C1)C(C)(C)O (some centres unmarked) [Compound 329] | < 6.00

More lines, now with the values ahead:

pIC50 | SMILES
< 6.00 | CCNC(=O)NC[C@H]1C[C@H](c2c(-c3ccc(F)cc3)[nH]c3c(F)cc(F)cc32)C1 [Compound 410]
< 6.00 | CC1(CNC(=O)C2CC(Cc3c(-c4ccc(F)cc4)[nH]c4c(F)cc(F)cc34)C2)CCOC1 (mixture of isomers) [Compound 332]
< 6.00 | C[C@H](NCC1CC(c2c(-c3ccc(F)cc3)[nH]c3c(F)cc(F)cc23)C1)C(N)=O (some centres unmarked) [Compound 439]
< 6.00 | O=C(N[C@H]1CCNC1=O)O[C@H]1C[C@H](c2c(-c3ccc(F)cc3)[nH]c3c(F)cc(F)cc32)C1 [Compound 371]
< 6.00 | Cc1cc(CNC(=O)C2CC(Cc3c(-c4ccc(F)cc4)[nH]c4c(F)cc(F)cc34)C2)nn1C (centres unmarked) [Compound 340]
< 6.00 | C[C@@H](O)CNC(=O)O[C@H]1C[C@H](c2c(-c3ccc(F)cc3)[nH]c3c(F)cc(F)cc32)C1 [Compound 369]
< 6.00 | CC(C)(O)CNC(=O)NC[C@H]1C[C@H](c2c(-c3ccc(F)cc3)[nH]c3c(F)cc(F)cc32)C1 [Compound 423]
< 6.00 | CC[C@H](NCC1CC(c2c(-c3ccc(F)cc3)[nH]c3c(F)cc(F)cc23)C1)C(=O)NCC(F)(F)F (some centres unmarked) [Compound 443]
< 6.00 | Cn1cnc(CNC(=O)O[C@H]2C[C@H](c3c(-c4ccc(F)cc4)[nH]c4c(F)cc(F)cc43)C2)c1 [Compound 368]
< 6.00 | O=C(NCc1cnco1)C1CC(Cc2c(-c3ccc(F)cc3)[nH]c3c(F)cc(F)cc23)C1 (centres unmarked) [Compound 337]
< 6.00 | Cn1cc(CNC(=O)O[C@H]2C[C@H](c3c(-c4ccc(F)cc4)[nH]c4c(F)cc(F)cc43)C2)nn1 [Compound 387]
< 6.00 | O=C(NCc1ccc(=O)[nH]c1)C1CC(Cc2c(-c3ccc(F)cc3)[nH]c3c(F)cc(F)cc23)C1 (centres unmarked) [Compound 346]
6.00 to 6.60 | C[C@@H](CO)NC(=O)O[C@H]1C[C@H](c2c(-c3ccc(F)cc3)[nH]c3c(F)cc(F)cc32)C1 [Compound 357]
< 6.00 | CC(C)C(CO)NC(=O)O[C@H]1C[C@H](c2c(-c3ccc(F)cc3)[nH]c3c(F)cc(F)cc32)C1 (some centres unmarked) [Compound 380]
